# Target: fully phosphorylated, active Mouse ERK2 protein (Mus musculus (Mouse), UniProt P63085)
# Test: Active ERK2 (aERK) IMAP assay, condition 1
# Assay type: biochemical
# Settings: aERK assay condition 1, 30 μM ATP
# Protocol: (§1) Active ERK2 (aERK) Assay: (Unless Indicated Otherwise, the Data Provided for aERK was obtained using Condition 1)
# Activated ERK2 activity was also determined in the IMAP assay format using the procedure outlined above. […] Reactions proceeded for 30 minutes before termination by addition of 60 μl IMAP detection beads in binding buffer. Plates were read as above after 30 minute binding equilibration.
# Sequence of fully phosphorylated, active Mouse ERK2 protein (P63085 whole entry): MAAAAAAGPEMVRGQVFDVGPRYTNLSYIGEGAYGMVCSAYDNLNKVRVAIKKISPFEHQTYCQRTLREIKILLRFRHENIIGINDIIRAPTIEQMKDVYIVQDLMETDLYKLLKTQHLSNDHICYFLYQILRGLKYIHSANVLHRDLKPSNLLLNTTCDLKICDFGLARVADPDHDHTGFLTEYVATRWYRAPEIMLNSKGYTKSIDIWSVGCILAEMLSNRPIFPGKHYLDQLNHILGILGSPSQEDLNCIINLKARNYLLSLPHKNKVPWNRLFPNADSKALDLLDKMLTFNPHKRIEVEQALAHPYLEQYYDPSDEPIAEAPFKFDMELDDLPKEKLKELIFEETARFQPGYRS
row,IC50 [nM],SMILES
1,45.1,CC(C)Oc1ccc(-c2n[nH]c3ccc(C(=O)N[C@@H]4CNC[C@H](c5ccccc5)C4)cc23)cc1
2,21.1,Cn1cc(-c2n[nH]c3ccc(C(=O)N[C@@H]4CCCN(Cc5ccccc5F)C4)cc23)ccc1=O
3,66.9,COc1cccc(F)c1CN1CCCC(NC(=O)c2ccc3[nH]nc(-c4ccnc(C)c4)c3c2)C1C (stereo not shown)
4,170,Cc1cc(-c2n[nH]c3ccc(C(=O)N[C@@H]4CCCN(CC(F)(F)c5ccccc5F)C4)cc23)ccn1
5,76.5,Cc1cc(-c2n[nH]c3ccc(C(=O)N[C@@H]4CCCN(CC(F)(F)c5ccccc5)C4)cc23)ccn1
6,12.9,O=C(NC1CCCCN(CCc2cccc3ccccc23)C1)c1ccc2[nH]nc(-c3ccncc3)c2c1 (stereo not shown)
7,13.4,O=C(NC1CCCCN(CCc2cccc(F)c2)C1)c1ccc2[nH]nc(-c3ccncc3)c2c1 (stereo not shown)
8,28.2,COc1cccc(F)c1CN1CCC[C@@H](NC(=O)c2ccc3[nH]nc(-c4ccc5ncsc5c4)c3c2)C1
9,70.9,CCc1nnc2ccc(-c3n[nH]c4ccc(C(=O)N[C@@H]5CCCN(Cc6c(F)cccc6OC)C5)cc34)cn12
10,395,CN1CC(NC(=O)c2ccc3[nH]nc(-c4ccc5nccn5c4)c3c2)CCC1C1CC1 (stereo not shown)
11,49.3,COc1cccc(F)c1CN1CC(NC(=O)c2ccc3[nH]nc(-c4ccc5nccn5c4)c3c2)CCC1C1CC1 (stereo not shown)
12,50.1,O=C(N[C@@H]1CCCN(Cc2ncon2)C1)c1ccc2[nH]nc(-c3ccncc3)c2c1
13,127,O=C(NC1CN(Cc2ccccc2F)CC(F)(F)C1)c1ccc2[nH]nc(-c3ccncc3)c2c1 (stereo not shown)
14,144,O=C(NC1CN(Cc2ccccc2)CC(F)(F)C1)c1ccc2[nH]nc(-c3ccncc3)c2c1 (stereo not shown)
15,98.1,O=C(NC1CCCCN(CCc2ccc(F)cc2)C1)c1ccc2[nH]nc(-c3ccncc3)c2c1 (stereo not shown)
16,133,COC(=O)[C@H]1CC[C@@H](NC(=O)c2ccc3[nH]nc(-c4ccncc4)c3c2)CN1Cc1ccccc1
17,34.8,O=C(CN1CCCCC(NC(=O)c2ccc3[nH]nc(-c4ccncc4)c3c2)C1)c1ccccc1 (stereo not shown)
18,175,COc1cccc(F)c1CN1CCC[C@@H](NC(=O)c2ccc3[nH]nc(-c4ccc5nsnc5c4)c3c2)C1
19,301,COc1cccc(F)c1CN1CCC[C@@H](NC(=O)c2ccc3[nH]nc(-c4ccc5nonc5c4)c3c2)C1
20,822,COc1cccc(F)c1CN1CCC[C@@H](NC(=O)c2ccc3[nH]nc(-c4ccc5nc(C(F)(F)F)nn5c4)c3c2)C1
21,296,COc1cccc(F)c1CN1CCC[C@@H](NC(=O)c2ccc3[nH]nc(-c4nc5ccccc5s4)c3c2)C1

row,IC50 [nM],SMILES
1,8.34,CN1CC(Cc2ccccc2)CC(NC(=O)c2ccc3[nH]nc(-c4ccncc4)c3c2)C1 (stereo not shown)
2,1.4,CN1CC(Cc2c(F)cccc2F)CC(NC(=O)c2ccc3[nH]nc(-c4ccc5nn(C)cc5c4)c3c2)C1 (stereo not shown)
3,3.09,CCN1CC(Cc2c(F)cccc2F)CC(NC(=O)c2ccc3[nH]nc(-c4ccc5nn(C)cc5c4)c3c2)C1 (stereo not shown)
4,1.45,Cc1nc2ccc(-c3n[nH]c4ccc(C(=O)N[C@@H]5C[C@H](Cc6c(F)cccc6F)CN(C)C5)cc34)cn2n1
5,47.6,Cc1nc2ccc(-c3n[nH]c4ccc(C(=O)N[C@@H]5C[C@@H](Cc6c(F)cccc6F)CN(C)C5)cc34)cn2n1
6,1.59,CN1C[C@H](Cc2c(F)cccc2F)C[C@H](NC(=O)c2ccc3[nH]nc(-c4ccn5ccnc5c4)c3c2)C1
7,150,CN1C[C@@H](Cc2c(F)cccc2F)C[C@H](NC(=O)c2ccc3[nH]nc(-c4ccn5ccnc5c4)c3c2)C1
8,3.83,CN1CC(Cc2c(F)cccc2F)CC(NC(=O)c2ccc3[nH]nc(-c4ccn5ncnc5c4)c3c2)C1 (stereo not shown)
9,8.82,CN1C[C@@H](Cc2c(F)cccc2F)C[C@@H](NC(=O)c2ccc3[nH]nc(-c4ccc5nonc5c4)c3c2)C1
10,1000,CN1C[C@H](Cc2c(F)cccc2F)C[C@@H](NC(=O)c2ccc3[nH]nc(-c4ccc5nonc5c4)c3c2)C1
11,22.4,CN1CC(Cc2c(F)cccc2F)CC(NC(=O)c2ccc3[nH]nc(-c4nc5ccccc5s4)c3c2)C1 (stereo not shown)
12,2.71,CN1CC(Cc2c(F)cccc2F)CC(NC(=O)c2ccc3[nH]nc(-c4ccc5ncsc5c4)c3c2)C1 (stereo not shown)
13,3.23,CN1CC(Cc2c(F)cccc2F)CC(NC(=O)c2ccc3[nH]nc(-c4ccc5nsnc5c4)c3c2)C1 (stereo not shown)
14,33.8,Cn1cc2cc(-c3n[nH]c4ccc(C(=O)N[C@H]5CCN[C@H](Cc6ccccc6)C5)cc34)ccc2n1
15,4.8,"Cc1cc(-c2n[nH]c3ccc(C(=O)NC4CC(Cc5c(F)cccc5F)CN(C)C4)cc23)ccn1 (stereo not shown) [N-(5-(2,6-difluorobenzyl)-1-methylpiperidin-3-yl)-3-(2-methylpyridin-4-yl)-1H-indazole-5-carboxamide]"
16,14.6,"COc1cccc(F)c1CN1C[C@H](NC(=O)c2ccc3[nH]nc(-c4ccnc(C)c4)c3c2)CC[C@H]1C(=O)N1CCC(O)CC1 [N-{(3R,6S)-1-(2-fluoro-6-methoxybenzyl)-6-[(4-hydroxypiperidin-1-yl)carbonyl]piperidin-3-yl}-3-(2-methylpyridin-4-yl)-1H-indazole-5-carboxamide]"
17,18,COc1cccc(F)c1CN1C[C@H](NC(=O)c2ccc3[nH]nc(-c4ccc5nccn5c4)c3c2)C[C@H](C(F)(F)F)C1 [drawing 317]
18,47.5,O=C(N[C@@H]1CC[C@@H](C(=O)NCc2ccccc2)N(Cc2ccccc2)C1)c1ccc2[nH]nc(-c3ccncc3)c2c1 [drawing 352]
19,48.3,CCNC(=O)[C@@H]1CC[C@@H](NC(=O)c2ccc3[nH]nc(-c4ccncc4)c3c2)CN1Cc1ccccc1 [drawing 353]
20,4.46,COc1cccc(F)c1CN1C[C@H](NC(=O)c2ccc3[nH]nc(-c4ccc5nccn5c4)c3c2)C[C@H](C(F)(F)F)C1 [drawing 377]
21,2.41,CNC(=O)[C@@H]1CC[C@@H](NC(=O)c2ccc3[nH]nc(-c4ccncc4)c3c2)CN1Cc1c(F)cccc1OC [drawing 383]

# Target: fully phosphorylated, mouse aERK2 enzyme (Mus musculus (Mouse), UniProt P63085)
# Sequence (P63085 whole entry): as above
# Test: Active ERK2 (aERK) IMAP-FP assay, condition 2
# Assay type: biochemical
# Settings: aERK assay condition 2, 30 uM ATP; read-out: aERK IC50
# Protocol: as §1
# Activated ERK2 activity was determined in an IMAP-FP assay (Molecular Devices). […] Phosphorylation reactions were allowed to proceed for 40-45 minutes and were immediately quenched by the addition of 60 μL IMAP detection beads (1:1000 dilutions) in IMAP binding buffer. Plates were read on EnVision reader after 30 minutes binding equilibration.
row,IC50 [nM],SMILES
1,206,O=C(N[C@@H]1CCCN(CC2CC2)C1)c1ccc2[nH]nc(-c3ccncc3)c2c1
2,26.4,"CN(C)C(=O)C(c1ccccc1F)N1CCC[C@@H](NC(=O)c2ccc3[nH]nc(-c4ccncc4)c3c2)C1 (single isomer, unassigned) [N-((R)-1-((R or S)-2-(dimethylamino)-1-(2-fluorophenyl)-2-oxoethyl)piperidin-3-yl)-3-(pyridin-4-yl)-1H-indazole-5-carboxamide]"
3,72.2,"NC(=O)C(c1ccccc1F)N1CCC[C@@H](NC(=O)c2ccc3[nH]nc(-c4ccncc4)c3c2)C1 (single isomer, unassigned) [N-((R)-1-((R or S)-2-amino-1-(2-fluorophenyl)-2-oxoethyl)-piperidin-3-yl)-3-(pyridin-4-yl)-1H-indazole-5-carboxamide]"
4,175,"CNC(=O)C(c1ccccc1F)N1CCC[C@@H](NC(=O)c2ccc3[nH]nc(-c4ccncc4)c3c2)C1 (single isomer, unassigned) [drawing 501, N-((R)-1-((R or S)-1-(2-fluorophenyl)-2-(methyl-amino)-2-oxoethyl)piperidin-3-yl)-3-(pyridin-4-yl)-1H-indazole-5-carboxamide]"
5,4.6,"CNC(=O)C(c1ccccc1F)N1CCC[C@@H](NC(=O)c2ccc3[nH]nc(-c4ccncc4)c3c2)C1 (single isomer, unassigned) [drawing 502, N-((R)-1-((S or R)-1-(2-fluorophenyl)-2-(methyl-amino)-2-oxoethyl)piperidin-3-yl)-3-(pyridin-4-yl)-1H-indazole-5-carboxamide]"
6,222,"NC(=O)C(c1c(F)cccc1F)N1CCC[C@@H](NC(=O)c2ccc3[nH]nc(-c4ccncc4)c3c2)C1 (single isomer, unassigned) [drawing 503, N-((R)-1-((R or S)-2-amino-1-(2,6-difluorophenyl)-2-oxoethyl)piperidin-3-yl)-3-(pyridin-4-yl)-1H-indazole-5-carboxamide]"

# Same assay, conditions: active ERK2; read-out: aErk2 Ic50
row,IC50 [nM],SMILES
1,105,COc1cccc(F)c1CN1C[C@H](NC(=O)c2ccc3[nH]nc(-c4ccnc(C)c4)c3c2)CC[C@H]1C(=O)NC1CCCC1
2,113,COc1cccc(F)c1CN1C[C@H](NC(=O)c2ccc3[nH]nc(-c4ccc5nn(C)cc5c4)c3c2)CC[C@H]1C(=O)Nc1nccs1
3,28.2,CCN(CC)C(=O)[C@@H]1CC[C@@H](NC(=O)c2ccc3[nH]nc(-c4ccnc(C)c4)c3c2)CN1Cc1cccs1
4,22.8,COc1cccc(F)c1CN1C[C@H](NC(=O)c2ccc3[nH]nc(-c4ccc5nn(C)cc5c4)c3c2)CC[C@H]1C(=O)N1CC(F)(F)C1
5,63.1,[2H]C([2H])([2H])Oc1cccc(F)c1CN1C[C@H](NC(=O)c2ccc3[nH]nc(-c4ccc5nc(C)sc5c4)c3c2)CC[C@H]1C(=O)N1CCN(C(C)=O)CC1
6,39.4,CCN(CC)C(=O)[C@@H]1CC[C@@H](NC(=O)c2ccc3[nH]nc(-c4ccc5nn(C)cc5c4)c3c2)CN1Cc1c(F)cccc1OC
7,15.9,COc1cccc(F)c1CN1C[C@H](NC(=O)c2ccc3[nH]nc(-c4ccc5nn(C)cc5c4)c3c2)CC[C@H]1C(=O)N(C)C
8,3.4,[2H]C([2H])([2H])Oc1cccc(F)c1CN1C[C@H](NC(=O)c2ccc3[nH]nc(-c4ccc5nc(C)sc5c4)c3c2)CC[C@H]1C(N)=O
9,72.8,[2H]C([2H])([2H])Oc1cccc(F)c1CN1C[C@H](NC(=O)c2ccc3[nH]nc(-c4ccc5nc(C)sc5c4)c3c2)CC[C@H]1C(=O)N1CCN(C(=O)OC(C)(C)C)CC1
10,12.2,[2H]C([2H])([2H])Oc1cccc(F)c1CN1C[C@H](NC(=O)c2ccc3[nH]nc(-c4ccnc(C)c4)c3c2)CC[C@H]1C(=O)N1CCN(C(=O)OC(C)(C)C)CC1

# — patent US8999957B2, “Heterocyclic compounds as ERK inhibitors” (Merck Sharp & Dohme Corp., priority 2010, dated 2015)
